Patent US20250352550A1, “SUBSTITUTED FUROPYRIDINES FOR THERAPEUTIC USE” (MASARYKOVA UNIVERZITA, priority 2022, published 2025)

Assays:
Assay type in all cases: biochemical
[1] = target: T1, DDR1 (Homo sapiens, UniProt Q08345); experiment: HotSpot radiometric kinase assay (Reaction Biology), DDR1; settings: 200 nM kinase, substrate IRS1tide 20 μM, 33P-ATP, 120 minutes at room temperature
T1 construct: purchased Reaction Biology
Description: (§1) The compounds were profiled in the HotSpot radiometric assays (Reaction Biology).
Briefly, • 1. Substrate indicated in Table 1 was dissolved in freshly prepared reaction buffer (20 mM HEPES (pH 7.5), 10 mM MgCl2, 1 mM EGTA, 0.01% Brij35, 0.02 mg/ml BSA, 0.1 mM Na3VO4, 2 mM DTT, 1% DMSO) at the concentration indicated in Table 1. • 2. Corresponding kinase (concentration indicated in Table 1) was added and the mixture was gently mixed. • 3. Tested compound dissolved in DMSO was added into the kinase reaction mixture. • 4. ^33P-ATP (specific activity 0.01 μCi/μL final) was added into the reaction mixture to initiate the reaction. • 5. The kinase reaction was incubated for 120 minutes at room temperature. • 6. […] The radioactive phosphorylated substrate remaining on the filter paper was measured.
(§2) Kinase activity data were expressed as the percent remaining kinase activity in tested samples compared to the vehicle (DMSO) reactions. IC50 values and curve fits were obtained using Prism4 Software (GraphPad).

[2] = target: T2, KHS/MAP4K5 (Homo sapiens, UniProt Q9Y4K4); experiment: HotSpot radiometric kinase assay (Reaction Biology), KHS/MAP4K5; settings: 1.5 nM kinase, substrate MBP 20 μM, 33P-ATP, 120 minutes at room temperature
T2 construct: purchased Reaction Biology
Description: as §1
(§3) Briefly, • 1. Substrate indicated in Table 1 was dissolved in freshly prepared reaction buffer (20 mM HEPES (pH 7.5), 10 mM MgCl2, 1 mM EGTA, 0.01% Brij35, 0.02 mg/ml BSA, 0.1 mM Na3VO4, 2 mM DTT, 1% DMSO) at the concentration indicated in Table 1. • 2. Corresponding kinase (concentration indicated in Table 1) was added and the mixture was gently mixed. • 3. Tested compound dissolved in DMSO was added into the kinase reaction mixture. • 4. ^33P-ATP (specific activity 0.01 μCi/μL final) was added into the reaction mixture to initiate the reaction. • 5. The kinase reaction was incubated for 120 minutes at room temperature. • 6. Reaction mixture was spotted onto P81 ion exchange paper (Whatman K 3698-915). • 7. The filters were extensively washed with […]. • 7. The radioactive phosphorylated substrate remaining on the filter paper was measured.
as §2
(§4) Table 2 summarizes the inhibitory activities of indicated compounds tested in the in vitro kinase assays described above.

[3] = target: T3, FLT3 (Homo sapiens, UniProt P36888); experiment: HotSpot radiometric kinase assay (Reaction Biology), FLT3; settings: 4 nM kinase, substrate ABLtide 20 μM, 33P-ATP, 120 minutes at room temperature
T3 construct: purchased Reaction Biology
T3 sequence (P36888 27-993): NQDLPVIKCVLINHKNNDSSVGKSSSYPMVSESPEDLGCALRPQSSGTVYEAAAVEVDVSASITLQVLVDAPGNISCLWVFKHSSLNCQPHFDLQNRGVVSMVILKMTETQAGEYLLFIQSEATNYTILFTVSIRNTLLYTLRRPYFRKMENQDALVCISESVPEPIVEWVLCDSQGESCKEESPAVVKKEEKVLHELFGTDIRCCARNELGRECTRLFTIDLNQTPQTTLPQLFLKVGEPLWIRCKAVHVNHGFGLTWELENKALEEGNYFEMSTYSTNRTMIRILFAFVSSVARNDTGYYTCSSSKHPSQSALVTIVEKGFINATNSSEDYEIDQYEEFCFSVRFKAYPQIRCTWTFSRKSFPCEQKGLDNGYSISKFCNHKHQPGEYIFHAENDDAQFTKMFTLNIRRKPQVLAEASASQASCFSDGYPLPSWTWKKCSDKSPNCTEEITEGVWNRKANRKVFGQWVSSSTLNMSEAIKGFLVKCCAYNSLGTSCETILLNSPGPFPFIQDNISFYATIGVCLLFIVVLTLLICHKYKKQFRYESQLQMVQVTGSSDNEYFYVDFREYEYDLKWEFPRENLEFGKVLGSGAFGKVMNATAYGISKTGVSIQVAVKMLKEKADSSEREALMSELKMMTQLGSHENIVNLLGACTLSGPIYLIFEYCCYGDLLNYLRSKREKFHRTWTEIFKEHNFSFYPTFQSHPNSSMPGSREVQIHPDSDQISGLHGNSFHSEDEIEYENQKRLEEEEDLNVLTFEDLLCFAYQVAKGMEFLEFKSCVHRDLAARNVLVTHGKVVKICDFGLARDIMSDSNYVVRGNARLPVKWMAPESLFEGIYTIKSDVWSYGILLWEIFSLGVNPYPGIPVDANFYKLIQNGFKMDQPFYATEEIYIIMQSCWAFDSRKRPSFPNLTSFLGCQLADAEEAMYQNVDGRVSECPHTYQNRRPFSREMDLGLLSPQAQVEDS
Description: as §1, §3, §2, §4

T1 sequence (Q08345 19-913): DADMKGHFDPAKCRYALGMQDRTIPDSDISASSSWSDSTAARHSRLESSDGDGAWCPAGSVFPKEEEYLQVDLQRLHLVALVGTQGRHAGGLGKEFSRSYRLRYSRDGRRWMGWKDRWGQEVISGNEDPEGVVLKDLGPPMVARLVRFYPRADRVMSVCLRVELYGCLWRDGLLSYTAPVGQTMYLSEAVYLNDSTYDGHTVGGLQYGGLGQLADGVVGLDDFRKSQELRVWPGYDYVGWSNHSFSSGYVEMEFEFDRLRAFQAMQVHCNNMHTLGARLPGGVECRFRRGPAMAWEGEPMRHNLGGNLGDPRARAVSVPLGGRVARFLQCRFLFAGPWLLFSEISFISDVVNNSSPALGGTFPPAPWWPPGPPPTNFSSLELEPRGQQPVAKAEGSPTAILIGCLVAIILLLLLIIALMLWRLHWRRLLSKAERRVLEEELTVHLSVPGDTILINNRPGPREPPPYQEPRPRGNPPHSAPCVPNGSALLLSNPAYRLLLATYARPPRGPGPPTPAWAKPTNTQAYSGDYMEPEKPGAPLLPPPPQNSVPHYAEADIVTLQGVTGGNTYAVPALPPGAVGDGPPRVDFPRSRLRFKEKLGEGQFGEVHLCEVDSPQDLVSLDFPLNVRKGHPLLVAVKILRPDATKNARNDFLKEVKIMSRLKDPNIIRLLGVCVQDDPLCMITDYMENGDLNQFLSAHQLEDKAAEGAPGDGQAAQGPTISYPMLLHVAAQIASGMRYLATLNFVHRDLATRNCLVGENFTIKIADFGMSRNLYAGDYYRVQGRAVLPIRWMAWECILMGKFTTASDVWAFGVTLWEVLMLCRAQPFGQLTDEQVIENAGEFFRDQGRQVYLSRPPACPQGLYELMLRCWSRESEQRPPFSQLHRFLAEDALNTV
T2 sequence (Q9Y4K4 whole entry): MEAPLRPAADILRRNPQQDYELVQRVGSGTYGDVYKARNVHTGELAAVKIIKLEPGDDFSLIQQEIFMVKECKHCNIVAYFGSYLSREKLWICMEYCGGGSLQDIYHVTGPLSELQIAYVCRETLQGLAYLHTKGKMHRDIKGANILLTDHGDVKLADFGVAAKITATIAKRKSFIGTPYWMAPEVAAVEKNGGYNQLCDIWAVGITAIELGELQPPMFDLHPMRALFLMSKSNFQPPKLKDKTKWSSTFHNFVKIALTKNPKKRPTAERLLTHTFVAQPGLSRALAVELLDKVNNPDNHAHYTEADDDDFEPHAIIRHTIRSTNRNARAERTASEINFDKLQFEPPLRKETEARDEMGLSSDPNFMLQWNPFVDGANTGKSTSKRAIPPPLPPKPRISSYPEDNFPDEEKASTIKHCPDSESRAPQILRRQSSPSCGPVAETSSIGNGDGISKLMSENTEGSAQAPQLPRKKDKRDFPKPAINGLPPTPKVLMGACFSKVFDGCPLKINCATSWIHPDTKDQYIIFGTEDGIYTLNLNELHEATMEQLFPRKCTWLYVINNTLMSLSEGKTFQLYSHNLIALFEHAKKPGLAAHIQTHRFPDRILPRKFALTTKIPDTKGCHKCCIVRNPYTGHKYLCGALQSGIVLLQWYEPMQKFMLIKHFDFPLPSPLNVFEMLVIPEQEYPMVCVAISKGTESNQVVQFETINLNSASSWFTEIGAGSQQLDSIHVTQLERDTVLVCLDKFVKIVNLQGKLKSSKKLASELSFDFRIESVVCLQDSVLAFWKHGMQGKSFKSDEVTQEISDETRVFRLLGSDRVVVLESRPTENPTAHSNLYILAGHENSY

## CC(c1ccccc1)c1coc2cc(-c3ccc(N4CCN(C)CC4)cc3)cnc12 (racemic) [Preparative Example 203, 1-methyl-4-{4-[3-(1-phenylethyl)furo[3,2-b]pyridin-6-yl]phenyl}piperazine]
[1]
  IC50: 808 nM
[2]
  IC50: 804 nM

## COc1cccc(-c2coc3cc(-c4ccc(N5CCNCC5)cc4)cnc23)c1 [Preparative Example 14, 3-(3-methoxyphenyl)-6-(4-(piperazin-1-yl)phenyl)furo[3,2-b]pyridine]
[1]
  IC50: 116 nM
[3]
  IC50: 49 nM
[2]
  IC50: 906 nM

## Cn1cc(-c2coc3cc(-c4ccc(N5CCNCC5)cc4)cnc23)cn1 [Preparative Example 34, 3-(1-methyl-1H-pyrazol-4-yl)-6-(4-(piperazin-1-yl)phenyl)furo[3,2-b]pyridine]
[1]
  IC50: 64 nM
[3]
  IC50: 100 nM
[2]
  IC50: 433 nM

## Fc1ccc(-c2coc3cc(-c4ccc(N5CCNCC5)cc4)cnc23)cc1 [Preparative Example 51, 3-(4-fluorophenyl)-6-(4-(piperazin-1-yl)phenyl)furo[3,2-b]pyridine]
[1]
  IC50: 42 nM
[3]
  IC50: 20 nM
[2]
  IC50: 675 nM

## CN(C)C(=O)c1cccc(-c2coc3cc(-c4ccc(N5CCNCC5)cc4)cnc23)c1 [Preparative Example 54, N,N-dimethyl-3-(6-(4-(piperazin-1-yl)phenyl)furo[3,2-b]pyridin-3-yl)benzamide]
[1]
  IC50: 301 nM
[3]
  IC50: 207 nM
[2]
  IC50: 538 nM

## CC(=O)c1cc(-c2coc3cc(-c4ccc(N5CCN(C)CC5)cc4)cnc23)ccn1 [Preparative Example 156, 1-(4-(6-(4-(4-methylpiperazin-1-yl)phenyl)furo[3,2-b]pyridin-3-yl)pyridin-2-yl)ethan-1-one]
[1]
  IC50: 734 nM
[3]
  IC50: 46 nM

## c1ccc(-c2ccccc2-c2coc3cc(-c4ccc(N5CCNCC5)cc4)cnc23)cc1 [Preparative Example 161, 3-([1,1′-biphenyl]-2-yl)-6-(4-(piperazin-1-yl)phenyl)furo[3,2-b]pyridine]
[1]
  IC50: 209 nM
[3]
  IC50: 832 nM

## CCCCOC(=O)c1cccc(-c2coc3cc(-c4ccc(N5CCNCC5)cc4)cnc23)c1 [Preparative Example 167, butyl 3-(6-(4-(piperazin-1-yl)phenyl)furo[3,2-b]pyridin-3-yl)benzoate]
[1]
  IC50: 305 nM
[3]
  IC50: 37 nM

## c1cc(-c2coc3cc(-c4ccc(OCCN5CCCCC5)cc4)cnc23)ccn1 [Preparative Example 171, 6-(4-(2-(piperidin-1-yl)ethoxy)phenyl)-3-(pyridin-4-yl)furo[3,2-b]pyridine]
[1]
  IC50: 365 nM
[3]
  IC50: 21 nM

## CN1CCN(c2ccc(-c3cnc4c(-c5ccccc5)coc4c3)cc2)CC1 [Preparative Example 172, 6-(4-(4-methylpiperazin-1-yl)phenyl)-3-phenylfuro[3,2-b]pyridine]
[1]
  IC50: 141 nM
[3]
  IC50: 33 nM

## CN1CCN(c2ccc(-c3cnc4c(-c5cccc(S(C)(=O)=O)c5)coc4c3)cc2)CC1 [Preparative Example 175, 6-(4-(4-methylpiperazin-1-yl)phenyl)-3-(3-(methylsulfonyl)phenyl)furo[3,2-b]pyridine]
[1]
  IC50: 290 nM
[3]
  IC50: 225 nM

## CN1CCN(c2ccc(-c3cnc4c(-c5cccc([S+](C)[O-])c5)coc4c3)cc2)CC1 (stereo not shown) [Preparative Example 181, 6-(4-(4-methylpiperazin-1-yl)phenyl)-3-(3-(methylsulfinyl)phenyl)furo[3,2-b]pyridine]
[1]
  IC50: 284 nM
[3]
  IC50: 99 nM

## CN1CCN(c2ccc(-c3cnc4c(Cc5ccccc5)coc4c3)cc2)CC1 [Preparative Example 186, 3-benzyl-6-(4-(4-methylpiperazin-1-yl)phenyl)furo[3,2-b]pyridine]
[1]
  IC50: 620 nM
[3]
  IC50: 373 nM

## Cc1c(-c2ccc(N3CCN(C)CC3)cc2)cnc2c(-c3ccccc3)coc12 [Preparative Example 188, 7-methyl-6-(4-(4-methylpiperazin-1-yl)phenyl)-3-phenylfuro[3,2-b]pyridine]
[1]
  IC50: 186 nM
[3]
  IC50: 147 nM

## Cc1oc2cc(-c3ccc(N4CCN(C)CC4)cc3)cnc2c1-c1ccccc1 [Preparative Example 196, 1-methyl-4-(4-{2-methyl-3-phenylfuro[3,2-b]pyridin-6-yl}phenyl)piperazine]
[1]
  IC50: 148 nM
[3]
  IC50: 96 nM

## CCCc1oc2cc(-c3ccc(N4CCN(C)CC4)cc3)cnc2c1-c1ccccc1 [Preparative Example 200, 1-methyl-4-(4-{3-phenyl-2-propylfuro[3,2-b]pyridin-6-yl}phenyl)piperazine]
[1]
  IC50: 79 nM
[3]
  IC50: 362 nM

## Cc1nn(C)cc1-c1coc2cc(-c3ccc(N4CCN(C)CC4)cc3)cnc12 [Preparative Example 216, 1-{4-[3-(1,3-dimethyl-1H-pyrazol-4-yl)furo[3,2-b]pyridin-6-yl]phenyl}-4-methylpiperazine]
[1]
  IC50: 367 nM
[3]
  IC50: 224 nM

## CN1CCN(c2ccc(-c3cnc4c(-c5ccccc5)c(-c5ccncc5)oc4c3)cc2)CC1 [Preparative Example 223, 1-methyl-4-{4-[3-phenyl-2-(pyridin-4-yl)furo[3,2-b]pyridin-6-yl]phenyl}piperazine]
[1]
  IC50: 70 nM
[3]
  IC50: 269 nM

## CN1CCN(c2ccc(-c3cnc4c(-n5ccnc5)coc4c3)cc2)CC1 [Preparative Example 231, 1-{4-[3-(1H-imidazol-1-yl)furo[3,2-b]pyridin-6-yl]phenyl}-4-methylpiperazine]
[1]
  IC50: 213 nM
[3]
  IC50: 101 nM

## COC(=O)c1cccc(-c2coc3cc(-c4ccc(N5CCN(C)CC5)cc4)cnc23)c1 [Preparative Example 237, methyl 3-{6-[4-(4-methylpiperazin-1-yl)phenyl]furo[3,2-b]pyridin-3-yl}benzoate]
[1]
  IC50: 486 nM
[3]
  IC50: 66 nM

## CONC(=O)c1cccc(-c2coc3cc(-c4ccc(N5CCN(C)CC5)cc4)cnc23)c1 [Preparative Example 238, N-methoxy-3-{6-[4-(4-methylpiperazin-1-yl)phenyl]furo[3,2-b]pyridin-3-yl}benzamide]
[1]
  IC50: 77 nM
[3]
  IC50: 22 nM

## CN1CCN(c2ccc(-c3cnc4c(-c5ccc(NC(=O)N(C)C)cc5)coc4c3)cc2)CC1 [Preparative Example 253, 3,3-dimethyl-1-(4-{6-[4-(4-methylpiperazin-1-yl)phenyl]furo[3,2-b]pyridin-3-yl}phenyl)urea]
[3]
  IC50: 377 nM
[2]
  IC50: 181 nM

## COc1ccc(-c2coc3cc(-c4ccc(N5CCN(C)CC5)cc4)cnc23)cc1 [Preparative Example 255, 3-(4-methoxyphenyl)-6-(4-(4-methylpiperazin-1-yl)phenyl)furo[3,2-b]pyridine]
[1]
  IC50: 191 nM
[3]
  IC50: 141 nM

## CN1CCN(c2ccc(-c3cnc4c(-c5ccc(C#N)cc5)coc4c3)cc2)CC1 [Preparative Example 257, 4-(6-(4-(4-methylpiperazin-1-yl)phenyl)furo[3,2-b]pyridin-3-yl)benzonitrile]
[1]
  IC50: 200 nM
[3]
  IC50: 28 nM
